Reference: patent US8076487B2, “Pyridone derivative and herbicide” (Kumiai Chemical Industry Co., Ltd., priority 2006, dated 2011)

Columns and labels:
Assay type in all cases: in vivo
[1] = system: early watergrass (Echinochloa oryzicola Vasing); assay: Test Example 1: herbicidal effect by soil application to paddy field; settings: paddy field soil application; active ingredient 1,000 g per 1 hectare; wettable powder added dropwise to water surface the day after sowing; examined on the 21st day after application
How it was run: (§1)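 Under greenhouse conditions, seeds sown on puddled paddy soil in 100 cm2 pots under 3 cm of standing water received the test compound; injury was assessed with a standard scoring scheme three weeks (day 21) after treatment.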

[2] = system: Japanese bulrush (Scirpus juncoides Roxb.); assay: as above; settings: paddy field soil application; active ingredient 1,000 g per 1 hectare; wettable powder added dropwise to water surface the day after sowing; examined on the 21st day after application
How it was run: as §1

[3] = system: heartshape false pickerelweed (Monochoria vaginalis (Burm.f.) C.Presl); assay: as above; settings: paddy field soil application; active ingredient 1,000 g per 1 hectare; wettable powder added dropwise to water surface the day after sowing; examined on the 21st day after application
How it was run: as §1

[4] = system: green foxtail (Setaria viridis (L.) P. Beauv.); assay: Test Example 3: herbicidal effect by application to upland field (foliage treatment); settings: foliage treatment, 1,000 g active ingredient per 1 hectare, 14th day after application, greenhouse
How it was run: (§2)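 A single foliar application of a water-diluted wettable powder, at 1,000 g of active ingredient per hectare, was made to plants raised for two weeks from seed in field soil. Herbicidal activity was judged visually after a further 14 days in the greenhouse.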

[5] = system: slender amaranth (Amaranthus viridis L.); assay: as above; settings: foliage treatment, 1,000 g active ingredient per 1 hectare, 14th day after application, greenhouse
How it was run: as §2

[6] = system: barnyardgrass (Echinochloa crus-galli (L.) P. Beauv. var. crus-galli); assay: as above; settings: foliage treatment, 1,000 g active ingredient per 1 hectare, 14th day after application, greenhouse
How it was run: as §2

[7] = system: velvetleaf (Abutilon theophrasti medicus); assay: as above; settings: foliage treatment, 1,000 g active ingredient per 1 hectare, 14th day after application, greenhouse
How it was run: as §2

Row | Structure (SMILES) | herbicidal effect, Echinochloa oryzicola Vasing [1] | herbicidal effect, Scirpus juncoides Roxb. [2] | herbicidal effect, Monochoria vaginalis (Burm. f.) C. Presl [3] | herbicidal effect, Green Foxtail [4] | herbicidal effect, Slender Amaranth [5] | herbicidal effect, Barnyardgrass [6] | herbicidal effect, Velvetleaf [7]
1 | CC1CC(C)C(O)=C(C(=O)c2ccc(C(F)(F)F)n(C)c2=O)C1=O (stereo not shown) [II-7] | 5 (90% or more of herbicidal effect and crop phytotoxicity) | 5 (90% or more of herbicidal effect and crop phytotoxicity) | 5 (90% or more of herbicidal effect and crop phytotoxicity) | 4 (70 to less than 90% of herbicidal effect and crop phytotoxicity) | 5 (90% or more of herbicidal effect and crop phytotoxicity) | 4 (70 to less than 90% of herbicidal effect and crop phytotoxicity) | 5 (90% or more of herbicidal effect and crop phytotoxicity)
2 | CCn1c(C(F)(F)F)ccc(C(=O)C2=C(O)C3CCC(C3)C2=O)c1=O (stereo not shown) [III-2] | 5 (90% or more of herbicidal effect and crop phytotoxicity) | 5 (90% or more of herbicidal effect and crop phytotoxicity) | 5 (90% or more of herbicidal effect and crop phytotoxicity) | 5 (90% or more of herbicidal effect and crop phytotoxicity) | 5 (90% or more of herbicidal effect and crop phytotoxicity) | 5 (90% or more of herbicidal effect and crop phytotoxicity) | 5 (90% or more of herbicidal effect and crop phytotoxicity)
3 | CCC(C)n1c(C(F)(F)F)ccc(C(=O)C2=C(O)C3CCC(C3)C2=O)c1=O (stereo not shown) [III-8] | 5 (90% or more of herbicidal effect and crop phytotoxicity) | 5 (90% or more of herbicidal effect and crop phytotoxicity) | 5 (90% or more of herbicidal effect and crop phytotoxicity) | 5 (90% or more of herbicidal effect and crop phytotoxicity) | 3 (50 to less than 70% of herbicidal effect and crop phytotoxicity) | 5 (90% or more of herbicidal effect and crop phytotoxicity) | 5 (90% or more of herbicidal effect and crop phytotoxicity)
4 | CSCCCn1c(C(F)(F)F)ccc(C(=O)C2=C(O)C3CCC(C3)C2=O)c1=O (stereo not shown) [III-31] | 5 (90% or more of herbicidal effect and crop phytotoxicity) | 5 (90% or more of herbicidal effect and crop phytotoxicity) | 5 (90% or more of herbicidal effect and crop phytotoxicity) | 5 (90% or more of herbicidal effect and crop phytotoxicity) | 5 (90% or more of herbicidal effect and crop phytotoxicity) | 5 (90% or more of herbicidal effect and crop phytotoxicity) | 5 (90% or more of herbicidal effect and crop phytotoxicity)
5 | O=C(C1=C(O)C2C=CC(C2)C1=O)c1ccc(C(F)(F)F)n(CC2CCCO2)c1=O (stereo not shown) [III-43] | 5 (90% or more of herbicidal effect and crop phytotoxicity) | 5 (90% or more of herbicidal effect and crop phytotoxicity) | 5 (90% or more of herbicidal effect and crop phytotoxicity) | 3 (50 to less than 70% of herbicidal effect and crop phytotoxicity) | 5 (90% or more of herbicidal effect and crop phytotoxicity) | 5 (90% or more of herbicidal effect and crop phytotoxicity) | 5 (90% or more of herbicidal effect and crop phytotoxicity)
6 | COCC(C)n1c(C(F)(F)F)ccc(C(=O)C2=C(O)C3C=CC(C3)C2=O)c1=O (stereo not shown) [III-44] | 5 (90% or more of herbicidal effect and crop phytotoxicity) | 5 (90% or more of herbicidal effect and crop phytotoxicity) | 5 (90% or more of herbicidal effect and crop phytotoxicity) | 5 (90% or more of herbicidal effect and crop phytotoxicity) | 5 (90% or more of herbicidal effect and crop phytotoxicity) | 4 (70 to less than 90% of herbicidal effect and crop phytotoxicity) | 5 (90% or more of herbicidal effect and crop phytotoxicity)
7 | C=CCn1c(C(F)(F)F)ccc(C(=O)c2cnn(CC)c2OS(=O)(=O)CCC)c1=O [IV-12] | 5 (90% or more of herbicidal effect and crop phytotoxicity) | 5 (90% or more of herbicidal effect and crop phytotoxicity) | 5 (90% or more of herbicidal effect and crop phytotoxicity) | 4 (70 to less than 90% of herbicidal effect and crop phytotoxicity) | 5 (90% or more of herbicidal effect and crop phytotoxicity) | 5 (90% or more of herbicidal effect and crop phytotoxicity) | 5 (90% or more of herbicidal effect and crop phytotoxicity)
8 | C=C(C)Cn1c(C(F)(F)F)ccc(C(=O)c2cnn(C)c2O)c1=O [IV-13] | 5 (90% or more of herbicidal effect and crop phytotoxicity) | 5 (90% or more of herbicidal effect and crop phytotoxicity) | 5 (90% or more of herbicidal effect and crop phytotoxicity) | 5 (90% or more of herbicidal effect and crop phytotoxicity) | 5 (90% or more of herbicidal effect and crop phytotoxicity) | 5 (90% or more of herbicidal effect and crop phytotoxicity) | 5 (90% or more of herbicidal effect and crop phytotoxicity)
9 | CC(C)=CCCn1c(C(F)(F)F)ccc(C(=O)c2cnn(C)c2O)c1=O [IV-15] | 5 (90% or more of herbicidal effect and crop phytotoxicity) | 5 (90% or more of herbicidal effect and crop phytotoxicity) | 5 (90% or more of herbicidal effect and crop phytotoxicity) | 5 (90% or more of herbicidal effect and crop phytotoxicity) | 5 (90% or more of herbicidal effect and crop phytotoxicity) | 4 (70 to less than 90% of herbicidal effect and crop phytotoxicity) | 5 (90% or more of herbicidal effect and crop phytotoxicity)
10 | Cn1ncc(C(=O)c2ccc(C(F)(F)F)n(CCC[S+](C)[O-])c2=O)c1O (stereo not shown) [IV-58] | 5 (90% or more of herbicidal effect and crop phytotoxicity) | 4 (70 to less than 90% of herbicidal effect and crop phytotoxicity) | 4 (70 to less than 90% of herbicidal effect and crop phytotoxicity) | 4 (70 to less than 90% of herbicidal effect and crop phytotoxicity) | 5 (90% or more of herbicidal effect and crop phytotoxicity) | 5 (90% or more of herbicidal effect and crop phytotoxicity) | 4 (70 to less than 90% of herbicidal effect and crop phytotoxicity)
